From the supplement of paper PMC10307832

How the values were obtained:
Test in all cases: relative viability (nuclei count vs DMSO), 5 days (fraction); higher = more cells survive
Salubrinal + Luminespib = compound: O=C(/C=C/c1ccccc1)NC(NC(=S)Nc1cccc2cccnc12)C(Cl)(Cl)Cl [Salubrinal] + CCNC(=O)c1noc(-c2cc(C(C)C)c(O)cc2O)c1-c1ccc(CN2CCOCC2)cc1 [Luminespib] (partner 0.01 µM)
Summary of the method: (§1)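 Each reported value is a median over duplicate plates. It expresses relative viability: treated-well nuclei count divided by vehicle-well nuclei count. Lung cancer cell lines in 1536-well plates were dosed by pin tool a day after seeding, alone with one drug or with a fixed anchor-drug dose plus five library-drug doses (not always all listed) in √10 steps, and nuclei were counted after 5 days.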

[1] = compound: Cc1ccc2nc(NCCN)c3ncc(C)n3c2c1 + COc1cccc2cc(-c3nc([C@H]4CC[C@H](C(=O)O)CC4)n4ncnc(N)c34)[nH]c12 [OSI-027] (partner 0.5 µM)
Summary of the method: as §1

Salubrinal + AZD7762 = compound: O=C(/C=C/c1ccccc1)NC(NC(=S)Nc1cccc2cccnc12)C(Cl)(Cl)Cl [Salubrinal] + NC(=O)Nc1cc(-c2cccc(F)c2)sc1C(=O)N[C@H]1CCCNC1 [AZD7762] (partner 0.2 µM)
Summary of the method: as §1

Salubrinal + Lapatinib = compound: O=C(/C=C/c1ccccc1)NC(NC(=S)Nc1cccc2cccnc12)C(Cl)(Cl)Cl [Salubrinal] + CS(=O)(=O)CCNCc1ccc(-c2ccc3ncnc(Nc4ccc(OCc5cccc(F)c5)c(Cl)c4)c3c2)o1 [Lapatinib] (partner 2 µM)
Summary of the method: as §1

Cell Line	relative viability (Salubrinal + Luminespib; first compound 0.08 µM)	relative viability (Salubrinal + Luminespib; first compound 0.253 µM)	relative viability (Salubrinal + Luminespib; first compound 0.8 µM)	relative viability (Salubrinal + Luminespib; first compound 2.53 µM)	relative viability (Salubrinal + Luminespib; first compound 8 µM)	relative viability ([1]; first compound 0.04 µM)	relative viability ([1]; first compound 0.1265 µM)	relative viability ([1]; first compound 0.4 µM)	relative viability ([1]; first compound 1.265 µM)	relative viability ([1]; first compound 4 µM)	relative viability (Salubrinal + AZD7762; first compound 0.08 µM)	relative viability (Salubrinal + AZD7762; first compound 0.253 µM)	relative viability (Salubrinal + AZD7762; first compound 0.8 µM)	relative viability (Salubrinal + AZD7762; first compound 2.53 µM)	relative viability (Salubrinal + AZD7762; first compound 8 µM)	relative viability (Salubrinal + Lapatinib; first compound 0.08 µM)	relative viability (Salubrinal + Lapatinib; first compound 0.253 µM)	relative viability (Salubrinal + Lapatinib; first compound 0.8 µM)	relative viability (Salubrinal + Lapatinib; first compound 2.53 µM)	relative viability (Salubrinal + Lapatinib; first compound 8 µM)
NCI-H596	0.971	0.775	0.972	1.2	0.92	0.709	0.749	0.617	0.709	0.737	1.05	1	1.07	1.16	0.865	1.05	1.02	1.21	1.08	0.887
A-427	1.04	0.696	1.07	0.8	1.2	0.499	0.408	0.488	0.49	0.451	0.892	0.716	0.755	0.802	0.67	1.09	0.966	1.11	0.961	1.03
EMC-BAC-2	1.26	0.835	1.28	1.16	1.11	0.387	0.381	0.344	0.394	0.377	1.1	1.06	1.31	1.16	1.13	0.823	0.815	0.947	0.865	0.938
NCI-H441	0.312	0.39	0.393	0.338	0.385	0.615	0.785	0.684	0.654	0.581	1.28	0.87	1.03	0.905	0.85					
LCLC-103H	1.11	0.82	1.02	1.04	0.916	0.551	0.492	0.464	0.494	0.421	0.856	0.699	0.806	0.815	0.701					
HCC-827	0.694	0.411	0.425	0.739	0.551	0.802	0.779	0.873	0.841	0.736	0.193	0.191	0.199	0.181	0.222	0.191	0.196	0.171	0.235	0.165
NCI-H1355	0.801	0.744	0.555	0.72	0.705	0.447	0.447	0.335	0.384	0.404	0.788	0.711	0.821	0.691	0.691	1.09	1.03	0.996	1.01	1.03
NCI-H1734	0.174	0.175	0.199	0.17	0.241	0.619	0.557	0.502	0.551	0.543	0.596	0.657	0.613	0.572	0.515	1.11	1.08	1.18	1.05	1.02
HARA	0.848	0.688	1.08	0.487	0.496	0.488	0.505	0.233	0.459	0.553	0.374	0.254	0.25	0.437	0.196	0.709	0.651	0.819	0.748	0.828
HCC-15	0.363	0.294	0.245	0.468	0.206	0.708	0.807	0.544	0.659	0.581	1.4	1.22	1.28	1.25	1.25	0.902	0.736	1	0.88	0.875
LCLC-97TM1	0.894	0.798	0.823	0.849	0.842	0.592	0.463	0.452	0.828	0.437	0.268	0.288	0.227	0.139	0.202	1.03	0.799	0.842		0.857
NCI-H2023	0.884	0.703	0.874	0.517	0.884	0.51	0.387	0.489	0.453	0.369						0.747	0.936	1.04	0.814	0.606
NCI-H1703											0.124	0.11	0.139	0.123	0.122	1.24		1.24	0.917	0.892
SK-LU-1	0.182	0.201	0.206	0.214	0.198	0.371	0.369	0.376	0.376	0.361						0.972	0.874	0.899	0.926	0.703
Calu-6																1.28	1.03	1.27	1.08	1.06
NCI-H1650	0.212	0.213	0.194	0.19	0.216	0.784	0.563	0.53	0.548	0.438						0.805	0.817	0.9	0.731	0.953
HCC-366						1.11	1.05	0.677	0.892	0.899	0.254		0.315	0.272	0.146	1.23	0.796	1.12	1.01	1.08
HCC-78						0.417	0.421	0.371	0.341	0.337	0.699	0.599	0.758	0.613	0.538	0.4	0.795	1.06	0.788	0.832
EBC-1																0.191	0.289	0.187	0.167	0.198

Cell Line	relative viability (Salubrinal + Luminespib; first compound 0.08 µM)	relative viability (Salubrinal + Luminespib; first compound 0.253 µM)	relative viability (Salubrinal + Luminespib; first compound 0.8 µM)	relative viability (Salubrinal + Luminespib; first compound 2.53 µM)	relative viability (Salubrinal + Luminespib; first compound 8 µM)	relative viability ([1]; first compound 0.04 µM)	relative viability ([1]; first compound 0.1265 µM)	relative viability ([1]; first compound 0.4 µM)	relative viability ([1]; first compound 1.265 µM)	relative viability ([1]; first compound 4 µM)	relative viability (Salubrinal + AZD7762; first compound 0.08 µM)	relative viability (Salubrinal + AZD7762; first compound 0.253 µM)	relative viability (Salubrinal + AZD7762; first compound 0.8 µM)	relative viability (Salubrinal + AZD7762; first compound 2.53 µM)	relative viability (Salubrinal + AZD7762; first compound 8 µM)	relative viability (Salubrinal + Lapatinib; first compound 0.08 µM)	relative viability (Salubrinal + Lapatinib; first compound 0.253 µM)	relative viability (Salubrinal + Lapatinib; first compound 0.8 µM)	relative viability (Salubrinal + Lapatinib; first compound 2.53 µM)	relative viability (Salubrinal + Lapatinib; first compound 8 µM)
NCI-H2342	0.779	0.662	0.714	0.601	0.799	0.659	0.607	0.767	0.551	0.595	0.445	0.503	0.552	0.517	0.552					
SK-MES-1	0.86	0.932	0.861	0.613	0.364	0.66	0.659	0.59	0.668	0.632						0.488	0.405	0.499	0.42	0.437
NCI-H2228	0.105	0.0961	0.154	0.108	0.174	0.589	0.656	0.617	0.59	0.719						1.29	0.775	1.35	1.08	0.743
NCI-H1563	0.572	0.501	0.521	0.488	0.506	0.78	0.769	0.768	0.796	0.728						0.992	1.05	0.975	0.886	0.882
NCI-H1623	0.465	0.648	0.541	0.435	0.441	0.418	0.444	0.451	0.39	0.425										
NCI-H1299																0.96	0.924	0.98	0.918	0.883
SW 1573	0.211	0.26	0.206	0.238	0.169	0.737	0.579	0.711	0.634	0.409						1.02	1.14	1.09	1.11	1.16
COR-L 105	0.7	0.699	0.761	0.812	0.738	0.79	0.753	0.666	0.691	0.723						0.377	0.317	0.395	0.389	0.35
NCI-H661	0.912	0.763	0.919	0.905	0.941	0.808	0.713	0.732	0.82	0.693						0.609	0.497	0.248	0.467	0.412
NCI-H522	1.13	0.97	1.13	1.12	1.11	0.622	0.802	0.649	0.657	0.613	0.99	0.808	0.957	0.808	0.908					
A549																1.08	0.954	1.03	0.939	0.886
NCI-H1648						0.242		0.249		0.233	0.733	0.62	0.705	0.654	0.575					
NCI-H2009	1.09	0.966	0.984	0.995	0.878	0.764	0.668	0.722	0.632	0.525						0.997	1.02	0.914	0.872	0.793
SW 900	0.173		0.175	0.189	0.207	0.453	0.661		0.465	0.553	0.612	0.579	0.687	0.585	0.421					
IA-LM																0.742	0.536	0.916	0.856	0.593
COR-L23	0.933	0.612	0.587	0.773	0.728	0.911	0.764	0.777	0.729	0.61						1.38	0.626	1.37	1	0.539
ChaGo-K-1	0.633	0.581	0.604	0.437	0.588	0.601	0.586	0.601	0.475	0.419	0.978	0.694	1	0.886	0.707					
NCI-H520	0.255	0.218	0.279	0.217	0.203	0.301	0.23	0.263	0.237	0.305						0.921	0.767	1.25	0.847	0.769
